Measurements: patent US20200367493A1, “BIOCONTROL ENHANCERS” (YEDA RESEARCH AND DEVELOPMENT CO. LTD., priority 2016, published 2020)
“Also recorded” adds a separate entry of the source.

Columns and labels:
B. subtilis 3610 = experiment: Pellicle assay (floating biofilm formation in MSgg medium); assay type: cell-based, Bacillus subtilis; details: for biofilm formation (promotion/induction/enhancement): B. subtilis 3610, 1 μM of the natural compound, compared with not treated; for pellicle formation (inhibition): B. subtilis, 1 μM
From the text: B. subtilis, NCBI 3610 (hereafter referred to as “3610”), forms robust and highly structured biofilms in liquid medium. When inoculated into a standing culture of minimal medium, 3610 initially grows planktonically as motile, single cells. The cells then migrate to the air-liquid interface, where they proliferate as long chains of non-motile cells. These chains are highly ordered in parallel patterns and are bound together tightly, presumably by an extracellular matrix (ECM), to form a floating biofilm (pellicle). Growth of the bundled chains continues, giving rise to larger biofilm structures that include the fruiting bodies. Thus, we consider pellicles as a highly robust setting for the study of B. subtilis biofilms
Two different assays were used to screen a natural compounds library (AnalytiCon Discovery GmbH Germany (http://www.ac-discovery.com/) for biofilm formation. A Petri Assay was used to observed changes in structure and size of biofilms, while a Pellicle Assay was used to study biofilm inhibitors and biofilm induction (FIG. 1).
The protocol for the pellicle essay comprised the following steps:
A 2× solution of rich, defined biofilm-inducing MSgg medium (Branda, S. S., Gonzalez-Pastor, J. E., Ben-Yehuda, S., Losick, R. & Kolter, R. Fruiting body formation by Bacillus subtilis. Proceedings of the National Academy of Sciences of the United States of America 98, 11621-11626, doi:10.1073/pnas.191384198 (2001)), without the calcium chloride and iron(III) chloride hexahydrate was prepared. After filter sterilization, the calcium chloride was added. The medium was ready to use directly or it could be stored at 4° C. in the dark.
A 1× dilution medium was prepared on the day of the experiment. The 2× MSgg medium was diluted to 1× with sterile distilled water (pellicles) or sterile 3% hot (80° C.) agar (biofilms) and iron(III) chloride hexahydrate added to a final concentration of 50 μM (pellicles) or […] (biofilms). Molecules for screening were then added.
Compared to the original MSgg recipe (Branda, S. S., et al. (2001) ibid), the medium used contained 50 μg/ml threonine and the iron concentration to grow biofilm colonies on solid MSgg medium was increased 2.5× to optimize the wrinkled colony morphology. After solidification of the agar, dry the solid MSgg plates in a biological hood for 30-45 min prior to the inoculation.
The next step was to streak out B. subtilis from a −80° C. stock (a LB culture of 10^9 cells/ml frozen in 20% glycerol) to isolate single colonies on a LB-1.5% agar plate with a sterile tip or applicator stick. Cultures were grown overnight at 30° C.
Following this, a single colony was picked from the LB-1.5% agar plate for growth in 3 ml LB broth at 37° C. for 4 hours in a shaking incubator (shaking speed 200 rpm) The LB broth was replaced with biofilm-inducing MSgg medium prior to inoculation by centrifuging 1 ml starter culture for 3 min at 6000 g, carefully removing the supernatant and re-suspending the pellet in 1 ml MSgg medium. The rest of the culture can be discharged.
During the growth of the starter culture, a 12-well cell-culture multidish plate containing 3 ml of MSgg medium without or with a concentration range of the small molecules (natural products to be tested) was prepared. To rule out edge effects, the location of the different concentrations was distributed across the multidish plate. Alternatively, use 24-well cell-culture multidish plates containing 1.5 ml of MSgg medium was used.
The wells of the 12-well cell-culture multidish plate were inoculated with […] of the washed starter culture (1:1000 dilution). In certain embodiments, a lower dilution ratio, i.e. 1:500 could be used. This decreases the development time of the pellicles.
Grow the pellicles at 23° C. was under static conditions for three days. The pellicles were no moved during this time, as it could affect the final surface morphology of the pellicle.
Pictures of the pellicles were taken with a high resolution camera. […]

sinI = sinI transcription, sinI promoter fused to luciferase reporter; assay type: cell-based, Bacillus subtilis; details: 1 μM; PsinI-luciferase, luminescence divided by OD600
Protocol: (§1) Planktonic growth, attachment to surfaces, induction of extracellular matrix genes tapA-sipW-tasA operon sinI regulator involved in biofilm formation, and biofilm development was measured and compared amongst the natural compounds identified by the screen. For the analysis for enhancement of biofilm formation and transcription of matrix genes 1 uM aqueous solutions comprising each natural compound were tested.
(§2) Gene expression: Gene expression was measure using reporter genes (luciferase or green fluorescent protein) Luminescence of a strains harboring sacA: PsinI-luciferase was measure in the presence or absence of 1 μM of the natural compounds presented in FIGS. 2A and 2B. Fluorescence of a strain harboring sacA::PtapA-gfp was measured in presence or absence of 1 μM of the natural compounds shown in FIGS. 2A and 2B. Results are a representative of six independent experiments; the SD represents an average of 5 wells.
(§3) The expression of SinI, the matrix regulator, was measured as was the expression of tapA-sipW-tasA operon, in the absence and presence of the natural compounds listed in FIG. 2B. Specifically, sinI transcription was monitored. SinI transcription is a direct readout for the activity of the genetic pathway resulting in matrix production and biofilm formation. sinI transcription in biofilm-inducing medium was monitored using the sinI promoter fused to luciferase.

tapA-sipW-tasA operon = experiment: tapA-sipW-tasA transcription, PtapA-gfp reporter; assay type: cell-based, Bacillus subtilis; details: B. subtilis; matrix genes (sinI, tapA reporters); 1 μM
Protocol: as §1, §2, §3

B. subtilis = experiment: Planktonic growth; assay type: cell-based, Bacillus subtilis; details: 1 μM
Protocol: as §1

P. sytingae pv tomato = experiment: Submerged biofilm formation, crystal violet staining of attached cells; assay type: cell-based
From the text: Similar to Example 1, a Pellicle Assay was used to study biofilm inhibitors (FIG. 1). Analysis of submerged biofilm formation by P. sytingae pv tomato included staining attached cells with crystal violet and quantified as known in the art (Mol Microbiology 28:449-461).

| Molecule | biofilm formation (promotion/induction/enhancement) (B. subtilis 3610) | transcription of sinI (sinI) | transcription expression of matrix genes (tapA-sipW-tasA operon) | pellicle formation (inhibition) (B. subtilis 3610) | effect on planktonic growth (B. subtilis) | attachment in the plant pathogen (inhibition) (P. sytingae pv tomato) |
| --- | --- | --- | --- | --- | --- | --- |
| COc1cc2oc(-c3ccc(O)c(O)c3)c(OC)c(=O)c2c(O)c1OC [2-(3,4-dihydroxyphenyl)-5-hydroxy-3,6,7-trimethoxy-4H-chromen-4-one] | enhance biofilm formation; also recorded: promoted, induced, and enhanced | significantly enhanced | enhance transcription expression of matrix genes |  |  |  |
| COc1cc(O)c2c(=O)c(O[C@@H]3O[C@H](CO)[C@@H](O)[C@H](O)[C@H]3O[C@@H]3O[C@H](CO)[C@@H](O)[C@H](O)[C@H]3O)c(-c3ccc(O)c(O)c3)oc2c1 [3-(((2S,3R,4S,5S,6R)-4,5-dihydroxy-6-(hydroxymethyl)-3-(((2S,3R,4S,5S,6R)-3,4,5-trihydroxy-6-(hydroxymethyl)tetrahydro-2H-pyran-2-yl)oxy)tetrahydro-2H-pyran-2-yl)oxy)-2-(3,4-dihydroxyphenyl)-5-hydroxy-7-methoxy-4H-chromen-4-one] | enhance biofilm formation; also recorded: promoted, induced, and enhanced | significantly enhanced | enhance transcription expression of matrix genes |  |  |  |
| CCCCCc1cc(O)c(C/C=C(\C)CCC=C(C)C)c(O)c1 [(E)-2-(3,7-dimethylocta-2,6-dien-1-yl)-5-pentylbenzene-1,3-diol] |  |  |  | blocked pellicle formation; also recorded: mildly inhibited | inert to planktonic growth | strongly inhibited attachment |
| C=C[C@H]1[C@H](OC2OC(CO)C(O)C(O)C2O)OC=C(C(=O)OC)[C@H]1CCOC(=O)c1cc(O)c(O)c(O)c1 (stereo partly drawn) [cornuside, (2S,3R,4S)-methyl 2-((3,4,5-trihydroxy-6-(hydroxymethyl)tetrahydro-2H-pyran-2-yl)oxy)-4-(2-((3,4,5-trihydroxybenzoyl)oxy)ethyl)-3-vinyl-3,4-dihydro-2H-pyran-5-carboxylate] | enhance biofilm formation; also recorded: promoted, induced, and enhanced | significantly enhanced | enhance transcription expression of matrix genes |  |  |  |
| COc1cc(-c2cc(=O)c3c(O)c(OC)c(OC)c(O)c3o2)ccc1O [isothymonin, 5,8-dihydroxy-2-(4-hydroxy-3-methoxyphenyl)-6,7-dimethoxy-4H-chromen-4-one] | enhance biofilm formation; also recorded: promoted, induced, and enhanced | significantly enhanced | enhance transcription expression of matrix genes |  |  |  |
| eupahakonenin B |  |  |  | blocked pellicle formation | inert to planktonic growth |  |
